Data taken from patent publication US20260356856A1, “KRAS G12S AND G12C INHIBITORS” (MIRATI THERAPEUTICS, INC., priority 2023, published 2026).

Tests used:
[1] = biological target: T1, KRas-mediated phosphorylation of ERK in A549 cells (Homo sapiens, UniProt P01116, G12S); assay: Inhibition of KRas-mediated phosphorylation of ERK (HTRF), A549 cells; type: cell-based; details: HTRF pERK, 3 h incubation
T1 construct: pERK HTRF read-out

[2] = biological target: T2, KRas-mediated phosphorylation of ERK in H358 cells (Homo sapiens, UniProt P01116, G12C); assay: Inhibition of KRas-mediated phosphorylation of ERK (HTRF), H358 cells; type: cell-based; details: HTRF pERK, 3 h incubation
T2 construct: pERK HTRF read-out
T2 sequence (P01116 1-188 isoform P01116-2 G12C): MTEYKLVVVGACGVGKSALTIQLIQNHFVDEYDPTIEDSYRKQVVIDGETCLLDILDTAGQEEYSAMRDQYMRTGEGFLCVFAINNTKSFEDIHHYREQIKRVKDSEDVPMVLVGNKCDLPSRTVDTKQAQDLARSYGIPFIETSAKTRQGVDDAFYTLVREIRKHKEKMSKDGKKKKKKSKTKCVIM

[3] = biological target: T3, KRas-mediated phosphorylation of ERK in MKN1 cells (Homo sapiens, UniProt P01116); assay: Inhibition of KRas-mediated phosphorylation of ERK (HTRF), MKN1 cells; type: cell-based; details: MKN1 cells (KRas WT); HTRF pERK; 3 h incubation
T3 construct: pERK HTRF read-out
T3 sequence (P01116 1-188 isoform P01116-2): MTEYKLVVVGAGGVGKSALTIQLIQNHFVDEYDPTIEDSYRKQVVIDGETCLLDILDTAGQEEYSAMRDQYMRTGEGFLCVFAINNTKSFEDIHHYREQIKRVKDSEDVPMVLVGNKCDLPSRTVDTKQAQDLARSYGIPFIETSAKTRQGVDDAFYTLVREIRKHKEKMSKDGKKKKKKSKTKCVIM
Procedure: Inhibition of KRas Phosphorylation of ERK (HTRF) by Exemplary Compounds of Formula (Ia) or (Ib)
Cisbio HTRF Advanced pERK Assay Catalog #64AERPEH • Cells: MKN1, PSN1 • Procedure: • 1. Day 1: Seed 6,000 cells/well −25 μl/well in 384-well white solid bottom plate; RPM1_10% FBS. Incubate overnight at 37 °C/5% CO2. • 2.

KRas G12C = biological target: T4, KRas G12C (Homo sapiens, UniProt P01116, G12C); assay: KRas binding assay, TR-FRET displacement of Cy5 labelled tracer; details: 60-minute incubation at room temperature, 1% DMSO, pH 7.5
T4 construct: Biotinylated KRas (corresponding to amino acids 1-169, produced at Accelegan Inc.); biotin (biotinylated); purchased Accelegan Inc
T4 sequence (P01116 1-169 isoform P01116-2 G12C): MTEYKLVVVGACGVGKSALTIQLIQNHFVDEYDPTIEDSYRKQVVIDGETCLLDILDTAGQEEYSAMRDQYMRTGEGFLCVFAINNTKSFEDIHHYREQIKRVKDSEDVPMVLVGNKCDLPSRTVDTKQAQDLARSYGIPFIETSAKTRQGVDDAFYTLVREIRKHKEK
Procedure, shortened: (§1)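 Final conditions: 1% DMSO, pH 7.5 HEPES buffer, 60 min, room temperature. Protein: biotin-KRas 1-169 with terbium streptavidin. Output: IC50, four-parameter fit of POC.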

KRas WT = biological target: T5, KRas WT (Homo sapiens, UniProt P01116); assay: as above; details: 60-minute incubation at room temperature, 1% DMSO, pH 7.5
T5 construct: Biotinylated KRas (corresponding to amino acids 1-169, produced at Accelegan Inc.); biotin (biotinylated); purchased Accelegan Inc
T5 sequence (P01116 1-169 isoform P01116-2): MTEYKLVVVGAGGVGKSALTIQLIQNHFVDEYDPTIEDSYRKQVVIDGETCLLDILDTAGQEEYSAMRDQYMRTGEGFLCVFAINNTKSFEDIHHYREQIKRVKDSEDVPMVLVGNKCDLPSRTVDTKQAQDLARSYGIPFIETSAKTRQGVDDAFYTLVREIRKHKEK
Procedure, shortened: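 Biotinylated KRas (residues 1-169) was incubated with tracer, terbium-streptavidin and compound at 1% DMSO final in 50 mM HEPES pH 7.5 containing 5 mM MgCl2, 0.005% Tween-20 and 1 mM DTT. The plate was read after 60 min at room temperature, and percent-of-control data were fit to a 4-parameter IC50 equation.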

KRas G12S = biological target: T6, KRas G12S (Homo sapiens, UniProt P01116, G12S); assay: as above; details: 60-minute incubation at room temperature, 1% DMSO, pH 7.5
T6 construct: Biotinylated KRas (corresponding to amino acids 1-169, produced at Accelegan Inc.); biotin (biotinylated); purchased Accelegan Inc
T6 sequence (P01116 1-169 isoform P01116-2 G12S): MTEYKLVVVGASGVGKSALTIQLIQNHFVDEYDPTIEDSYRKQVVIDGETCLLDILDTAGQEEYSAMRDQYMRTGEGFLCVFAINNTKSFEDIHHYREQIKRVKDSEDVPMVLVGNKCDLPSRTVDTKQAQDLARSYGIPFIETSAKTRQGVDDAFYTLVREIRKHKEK
Procedure, shortened: as §1

T1 sequence (P01116 1-188 isoform P01116-2 G12S): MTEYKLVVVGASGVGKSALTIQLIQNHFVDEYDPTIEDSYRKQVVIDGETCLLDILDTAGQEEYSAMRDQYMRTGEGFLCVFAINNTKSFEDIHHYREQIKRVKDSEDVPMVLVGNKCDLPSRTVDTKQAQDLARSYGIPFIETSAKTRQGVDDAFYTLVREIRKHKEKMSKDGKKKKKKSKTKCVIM

SMILES | IC50 [1] [nM] | IC50 [2] [nM] | IC50 [3] [nM] | IC50 (KRas G12C) [nM] | IC50 (KRas WT) [nM] | IC50 (KRas G12S) [nM]
N#Cc1c(N)sc2c(F)ccc(-c3c(Cl)cc4c(N5CCN(S(=O)(=O)n6nccn6)CC5)nc(OC[C@@]56CCCN5C[C@H](F)C6)nc4c3F)c12 [Example 229, 4-(4-(4-((2H-1,2,3-triazol-2-yl)sulfonyl)piperazin-1-yl)-6-chloro-8-fluoro-2-(((2R,7aS)-2-fluorotetrahydro-1H-pyrrolizin-7a(5H)-yl)methoxy)quinazolin-7-yl)-2-amino-7-fluorobenzo[b]thiophene-3-carbonitrile] | > 10000 | > 10000 | 333 | 586 | 161 | 631
CCc1c(F)ccc2cc(O)cc(-c3ncc4c(N(C)CCCS(=O)(=O)n5cccn5)nc(OC[C@@]56CCCN5C[C@H](F)C6)nc4c3F)c12 [Example 230, 4-(4-((3-((1H-pyrazol-1-yl)sulfonyl)propyl)(methyl)amino)-8-fluoro-2-(((2R,7aS)-2-fluorotetrahydro-1H-pyrrolizin-7a(5H)-yl)methoxy)pyrido[4,3-d]pyrimidin-7-yl)-5-ethyl-6-fluoronaphthalen-2-ol] | 4350 | 1500 | 394 | 134 | 91 | 123
CON(C(C)=O)C(=O)CCCN(C)c1nc(OC[C@@]23CCCN2C[C@H](F)C3)nc2c(F)c(-c3ccc(F)c4sc(N)c(C#N)c34)c(Cl)cc12 [Example 234, N-acetyl-4-((7-(2-amino-3-cyano-7-fluorobenzo[b]thiophen-4-yl)-6-chloro-8-fluoro-2-(((2R,7aS)-2-fluorotetrahydro-1H-pyrrolizin-7a(5H)-yl)methoxy)quinazolin-4-yl)(methyl)amino)-N-methoxybutanamide] | 3 | 7 | 161 | < 2 | 9 | 3
CN(C=O)C(=O)CCCN(C)c1nc(OC[C@@]23CCCN2C[C@H](F)C3)nc2c(F)c(-c3ccc(F)c4sc(N)c(C#N)c34)c(Cl)cc12 [Example 235, 4-((7-(2-amino-3-cyano-7-fluorobenzo[b]thiophen-4-yl)-6-chloro-8-fluoro-2-(((2R,7aS)-2-fluorotetrahydro-1H-pyrrolizin-7a(5H)-yl)methoxy)quinazolin-4-yl)(methyl)amino)-N-formyl-N-methylbutanamide] | 7 | 60 | 82 | 3 | 6 | 2
CC(=O)N(C)C(=O)[C@@H]1C[C@H]1CNc1nc(OC[C@@]23CCCN2C[C@H](F)C3)nc2c(F)c(-c3ccc(F)c4sc(N)c(C#N)c34)c(Cl)cc12 [Example 238, trans-N-acetyl-2-(((7-(2-amino-3-cyano-7-fluorobenzo[b]thiophen-4-yl)-6-chloro-8-fluoro-2-(((2R,7aS)-2-fluorotetrahydro-1H-pyrrolizin-7a(5H)-yl)methoxy)quinazolin-4-yl)amino)methyl)-N-methylcyclopropane-1-carboxamide] | 145 | 84 | 40 | 11 | 10 | 14

Continued, values first:

IC50 [1] [nM] | IC50 [2] [nM] | IC50 [3] [nM] | IC50 (KRas G12C) [nM] | IC50 (KRas WT) [nM] | IC50 (KRas G12S) [nM] | SMILES
69 | 1 | 4 | < 2 | 6 | 8 | N#Cc1c(N)sc2c(F)ccc(-c3c(Cl)cc4c(N5CCN(C(=O)n6ccnn6)CC5)nc(OC[C@@]56CCCN5C[C@H](F)C6)nc4c3F)c12 [Example 226, 4-(4-(4-(1H-1,2,3-triazole-1-carbonyl)piperazin-1-yl)-6-chloro-8-fluoro-2-(((2R,7aS)-2-fluorotetrahydro-1H-pyrrolizin-7a(5H)-yl)methoxy)quinazolin-7-yl)-2-amino-7-fluorobenzo[b]thiophene-3-carbonitrile]
46 | 185 | 522 | 19 | 93 | 13 | Cc1ccn(C(=O)C2CCCN(c3nc(OCC4(CN(C)C)CC4)nc4c(F)c(-c5ccc(F)c6sc(N)c(C#N)c56)c(Cl)cc34)CC2)n1 (stereo not drawn) [Example 227, 2-amino-4-(6-chloro-2-((1-((dimethylamino)methyl)cyclopropyl)methoxy)-8-fluoro-4-(4-(3-methyl-1H-pyrazole-1-carbonyl)azepan-1-yl)quinazolin-7-yl)-7-fluorobenzo[b]thiophene-3-carbonitrile]
448 | 9 | 252 | 3 | 13 | 8 | CN(CCNC(=O)n1cncn1)c1nc(OC[C@@]23CCCN2C[C@H](F)C3)nc2c(F)c(-c3ccc(F)c4sc(N)c(C#N)c34)c(Cl)cc12 [Example 228, N-(2-((7-(2-amino-3-cyano-7-fluorobenzo[b]thiophen-4-yl)-6-chloro-8-fluoro-2-(((2R,7aS)-2-fluorotetrahydro-1H-pyrrolizin-7a(5H)-yl)methoxy)quinazolin-4-yl)(methyl)amino)ethyl)-1H-1,2,4-triazole-1-carboxamide]
444 | 4 | 25 | 5 | 13 | 17 | N#Cc1c(N)sc2c(F)ccc(-c3c(Cl)cc4c(N5CCN(C(=O)n6ccnc6)CC5)nc(OC[C@@]56CCCN5C[C@H](F)C6)nc4c3F)c12 [Example 231, 4-(4-(4-(1H-imidazole-1-carbonyl)piperazin-1-yl)-6-chloro-8-fluoro-2-(((2R,7aS)-2-fluorotetrahydro-1H-pyrrolizin-7a(5H)-yl)methoxy)quinazolin-7-yl)-2-amino-7-fluorobenzo[b]thiophene-3-carbonitrile]
234 | 3 | 97 | 3 | 12 | 7 | CN(CCN(C)c1nc(OC[C@@]23CCCN2C[C@H](F)C3)nc2c(F)c(-c3ccc(F)c4sc(N)c(C#N)c34)c(Cl)cc12)C(=O)n1cncn1 [Example 232, N-(2-((7-(2-amino-3-cyano-7-fluorobenzo[b]thiophen-4-yl)-6-chloro-8-fluoro-2-(((2R,7aS)-2-fluorotetrahydro-1H-pyrrolizin-7a(5H)-yl)methoxy)quinazolin-4-yl)(methyl)amino)ethyl)-N-methyl-1H-1,2,4-triazole-1-carboxamide]
17 | 69 | 70 | 18 | 15 | 6 | CC(=O)N(C)C(=O)[C@@H]1C[C@@H]2CN(c3nc(OC[C@@]45CCCN4C[C@H](F)C5)nc4c(F)c(-c5ccc(F)c6sc(N)c(C#N)c56)c(Cl)cc34)C[C@@H]2C1 [Example 237, (3aR,5R,6aS)-N-acetyl-2-((S)-7-(2-amino-3-cyano-7-fluorobenzo[b]thiophen-4-yl)-6-chloro-8-fluoro-2-(((2R,7aS)-2-fluorotetrahydro-1H-pyrrolizin-7a(5H)-yl)methoxy)quinazolin-4-yl)-N-methyloctahydrocyclopenta[c]pyrrole-5-carboxamide]
